ChEMBL document CHEMBL4261580, “Novel antitumor compound optimized from natural saponin Albiziabioside A induced caspase-dependent apoptosis and ferroptosis as a p53 activator through the mitochondrial pathway” (Eur J Med Chem, 2018)
pIC50: −log10 of the molar value. Calls of active or inactive are those of the source. No cut-off for these calls is given here.

Experiments:
[1] = test system: HCT-116; experiment: Induction of intracellular ROS generation in human HCT116 cells after 72 hrs by DCF-DA-dye based fluorescence microscopy; format: functional, cell-based
[2] = test system: Mus musculus; experiment: Toxicity in BALB/c nude mouse xenografted with human HCT116 cells assessed as abnormality in lung at 10 to 20 mg/kg, iv administered once per day by hematoxylin and eosin staining-based microscopic method; format: organism-based; conditions: in vivo
[3] = test system: HCT-116; experiment: Induction of apoptosis in human HCT116 cells assessed as viable cells at 0.31 uM after 72 hrs by Annexin V-FITC/propidium iodide staining-based flow cytometric analysis (reference value: 92.86%); format: functional; conditions: HCT-116, 72 h, read-out: Activity
[4] = test system: HCT-116; experiment: Cytotoxicity against human HCT116 cells pretreated with Ca2+ followed by compound addition up to 5 uM measured after 72 hrs by MTT assay; format: functional, cell-based
[5] = test system: MCF7; experiment: Antiproliferative activity against human MCF7 cells after 72 hrs by MTT assay; format: functional, cell-based; conditions: MCF7, 72 h
[6] = test system: HCT-116; experiment: Cytotoxicity against human HCT116 cells up to 5 uM after 72 hrs in presence of caspase inhibitor z-VAD-fmk by MTT assay; format: functional, cell-based
[7] = test system: HCT-116; experiment: Cytotoxicity against human HCT116 cells pretreated with K+ followed by compound addition up to 5 uM measured after 72 hrs by MTT assay; format: functional, cell-based
[8] = test system: HCT-116; experiment: Induction of apoptosis in human HCT116 cells assessed as late apoptotic cells at 1.25 uM after 72 hrs by Annexin V-FITC/propidium iodide staining-based flow cytometric analysis (reference value: 1.08%); format: functional
[9] = test system: HCT-116; experiment: Disruption of mitochondrial membrane potential in human HCT116 cells assessed as collapse of mitochondrial membrane potential at 5 uM after 72 hrs by JC1 staining-based flow cytometry method (reference value: […]); format: functional
[10] = test system: Mus musculus; experiment: Toxicity in BALB/c nude mouse xenografted with human HCT116 cells assessed as abnormality in spleen at 10 to 20 mg/kg, iv administered once per day by hematoxylin and eosin staining-based microscopic method; format: organism-based; conditions: in vivo
[11] = test system: HCT-116; experiment: Induction of apoptosis in human HCT116 cells after 72 hrs by Annexin V-FITC/propidium iodide staining-based flow cytometric analysis; format: functional, cell-based
[12] = test system: Mus musculus; experiment: Toxicity in BALB/c nude mouse xenografted with human HCT116 cells assessed as abnormality in kidney at 10 to 20 mg/kg, iv administered once per day by hematoxylin and eosin staining-based microscopic method; format: organism-based; conditions: in vivo
[13] = test system: A549; experiment: Antiproliferative activity against human A549 cells after 72 hrs by MTT assay; format: functional, cell-based; conditions: A549, 72 h
[14] = test system: HCT-116; experiment: Antiproliferative activity against human HCT116 cells after 72 hrs by MTT assay; format: functional, cell-based; conditions: HCT-116, 72 h
[15] = test system: HCT-116; experiment: Induction of intracellular ROS generation in human HCT116 cells at 0.31 uM after 72 hrs by DCF-DA-dye based fluorescence microscopy (reference value: 2.74%); format: functional
[16] = test system: HCT-116; experiment: Cytotoxicity against human HCT116 cells pretreated with Al3+ followed by compound addition up to 5 uM measured after 72 hrs by MTT assay; format: functional, cell-based
[17] = test system: HCT-116; experiment: Disruption of mitochondrial membrane potential in human HCT116 cells assessed as collapse of mitochondrial membrane potential at 1.25 uM after 72 hrs by JC1 staining-based flow cytometry method (reference value: […]); format: functional
[18] = test system: HCT-116; experiment: Induction of apoptosis in human HCT116 cells assessed as necrotic cells at 1.25 uM after 72 hrs by Annexin V-FITC/propidium iodide staining-based flow cytometric analysis (reference value: 0.76%); format: functional
[19] = test system: HCT-116; experiment: Effect on caspase-8 expression in human HCT116 cells up to 5 uM after 48 hrs by Western blot analysis; format: functional, cell-based
[20] = test system: HCT-116; experiment: Induction of intracellular ROS generation in human HCT116 cells at 5 uM after 72 hrs by DCF-DA-dye based fluorescence microscopy (reference value: 2.74%); format: functional
[21] = test system: BEAS-2B; experiment: Antiproliferative activity against human BEAS2B cells after 72 hrs by MTT assay; format: functional, cell-based
[22] = target: Cellular tumor antigen p53 (Homo sapiens) (UniProt P04637); experiment: Activation of p53 in human HCT116 cells assessed as downregulation of Bcl2 expression up to 5 uM after 48 hrs by Western blot analysis; format: cell-based
[23] = test system: MGC-803; experiment: Antiproliferative activity against human MGC803 cells after 72 hrs by MTT assay; format: functional, cell-based; conditions: MGC-803, 72 h
[24] = test system: HCT-116; experiment: Induction of apoptosis in human HCT116 cells assessed as viable cells at 5 uM after 72 hrs by Annexin V-FITC/propidium iodide staining-based flow cytometric analysis (reference value: 92.86%); format: functional; conditions: HCT-116, 72 h, read-out: Activity
[25] = test system: Mus musculus; experiment: Toxicity in BALB/c nude mouse xenografted with human HCT116 cells assessed as abnormality in liver at 10 to 20 mg/kg, iv administered once per day by hematoxylin and eosin staining-based microscopic method; format: organism-based; conditions: in vivo
[26] = test system: Mus musculus; experiment: Toxicity in BALB/c nude mouse xenografted with human HCT116 cells assessed as abnormality in heart at 10 to 20 mg/kg, iv administered once per day by hematoxylin and eosin staining-based microscopic method; format: organism-based; conditions: in vivo
[27] = test system: HCT-116; experiment: Induction of apoptosis in human HCT116 cells assessed as necrotic cells at 5 uM after 72 hrs by Annexin V-FITC/propidium iodide staining-based flow cytometric analysis (reference value: 0.76%); format: functional
[28] = test system: HCT-116; experiment: Induction of apoptosis in human HCT116 cells assessed as late apoptotic cells at 5 uM after 72 hrs by Annexin V-FITC/propidium iodide staining-based flow cytometric analysis (reference value: 1.08%); format: functional

Chain of Cellular tumor antigen p53 (Homo sapiens) (P04637 whole entry, looked up): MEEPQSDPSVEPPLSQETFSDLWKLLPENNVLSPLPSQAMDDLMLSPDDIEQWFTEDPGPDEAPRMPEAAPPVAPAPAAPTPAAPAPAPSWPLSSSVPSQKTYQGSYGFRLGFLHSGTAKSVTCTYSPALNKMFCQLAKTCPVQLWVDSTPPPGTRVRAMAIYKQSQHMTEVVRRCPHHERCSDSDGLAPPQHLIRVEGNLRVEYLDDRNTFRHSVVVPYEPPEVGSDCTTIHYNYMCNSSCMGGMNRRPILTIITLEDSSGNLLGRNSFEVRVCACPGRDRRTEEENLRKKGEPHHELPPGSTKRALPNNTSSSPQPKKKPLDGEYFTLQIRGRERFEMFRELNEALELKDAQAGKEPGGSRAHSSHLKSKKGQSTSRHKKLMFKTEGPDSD

Structure (SMILES): CC(=O)N[C@H]1[C@H](O[C@H]2CC[C@]3(C)[C@H]4CC=C5[C@@H]6CC(C)(C)CC[C@]6(C(=O)OCc6cn(-c7cccc(C(C)=O)c7)nn6)CC[C@@]5(C)[C@]4(C)CC[C@H]3C2(C)C)O[C@H](CO[C@@H]2OC[C@H](O)[C@H](O)[C@@H]2O)[C@@H](O)[C@@H]1O
- Activity [1]: Dose-dependent effect
- Activity [2]: Non-Toxic
- viability at 0.31 µM [3]: 78.9%
- Activity [4]: Active
- pIC50 [5]: 4.98
- Activity [6]: inactive
- Activity [7]: Active
- Activity [8]: 26.18%
- Activity [9]: 59.87%
- Activity [10]: Non-Toxic
- Activity [11]: Dose-dependent effect
- Activity [12]: Non-Toxic
- pIC50 [13]: 5.04
- pIC50 [14]: 5.28
- Activity [15]: 12.87%
- Activity [16]: Active
- Activity [17]: 77.36%
- Activity [18]: 5.35%
- Activity [19]: inactive
- Activity [20]: 29.71%
- pIC50 [21]: 4.69
- Activity [22]: Active
- pIC50 [23]: 5.13
- viability at 5 µM [24]: 38.5%
- Activity [25]: Non-Toxic
- Activity [26]: Non-Toxic
- Activity [27]: 1.86%
- Activity [28]: 20.33%
